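Test compounds were applied to cells in 96-well plates for 48 hours at 5 doses. Here, GI50 denotes the concentration required for 50% inhibition of growth.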 Calls of active or inactive are those of the source. Rule as the data show it: active = GI50 up to about 1.1 µM and inactive = higher.
How the values were obtained:
Test in all cases: inhibition of tumour cell growth, NCI panel, 48 h
DMS-273 = tested on: DMS-273
DMS-114 = tested on: DMS-114
LXFL 529 = tested on: LXFL 529
M19-MEL = tested on: M19-MEL
SNB-78 = tested on: SNB-78
XF498 = tested on: XF498
KM-20L2 = tested on: KM-20L2
HOP-18 = tested on: HOP-18
RXF 631 = tested on: RXF 631

Compound	GI50 (DMS-273)	GI50 (DMS-114)	GI50 (LXFL 529)	GI50 (M19-MEL)	GI50 (SNB-78)	GI50 (XF498)	GI50 (KM-20L2)	GI50 (HOP-18)	GI50 (RXF 631)
Cc1[nH]c2ccccc2c1/C=C/c1c(C)[nH]c2ccccc12	> 100 µM (inactive)	> 100 µM (inactive)	> 100 µM (inactive)	> 100 µM (inactive)	> 100 µM (inactive)	> 100 µM (inactive)	> 100 µM (inactive)	–	–
CCOC(=O)Cn1c(=O)[nH]c(=O)c2[nH]cnc21	> 100 µM (inactive)	> 100 µM (inactive)	> 100 µM (inactive)	> 100 µM (inactive)	> 100 µM (inactive)	–	> 100 µM (inactive)	> 100 µM (inactive)	> 100 µM (inactive)
COc1cc2c(c(OC)c1OC)CCNC2C1=C(O)COC1=O (stereo not given)	> 100 µM (inactive)	> 100 µM (inactive)	> 100 µM (inactive)	> 100 µM (inactive)	> 100 µM (inactive)	–	> 100 µM (inactive)	95.5 µM (inactive)	> 100 µM (inactive)
Cc1cccc(-c2nc3c(C(=O)NCCN(C)C)cccc3[nH]2)c1	0.411 µM (active)	1.24 µM (inactive)	–	1.67 µM (inactive)	3.49 µM (inactive)	–	–	0.605 µM (active)	0.394 µM (active)
CN[C@@H]1C[C@H]2O[C@@](C)([C@@H]1OC)n1c3ccccc3c3c4c(c5c6ccccc6n2c5c31)C(=O)N[C@@H]4O	0.0352 µM (active)	0.104 µM (active)	0.119 µM (active)	0.135 µM (active)	0.0344 µM (active)	0.0356 µM (active)	0.104 µM (active)	0.01 µM (active)	–
CS(=O)(=O)OCCCOS(C)(=O)=O	> 100 µM (inactive)	> 100 µM (inactive)	> 100 µM (inactive)	> 100 µM (inactive)	> 100 µM (inactive)	> 100 µM (inactive)	> 100 µM (inactive)	> 100 µM (inactive)	–
N#C/C(=C1\OC(=O)C(c2ccc(Br)cc2)=C1O)c1ccc(Br)cc1	21.3 µM (inactive)	12.8 µM (inactive)	10.2 µM (inactive)	14.6 µM (inactive)	12.3 µM (inactive)	12.9 µM (inactive)	17.5 µM (inactive)	13.5 µM (inactive)	15.4 µM (inactive)
COc1ccc2c(c1)OC[C@@H]1c3cc4c(cc3O[C@H]21)OCO4	> 100 µM (inactive)	> 100 µM (inactive)	> 100 µM (inactive)	–	> 100 µM (inactive)	> 100 µM (inactive)	> 100 µM (inactive)	37.2 µM (inactive)	–
CCN(CC)Cc1c(/C=C\c2cc(OC)c(OC)c(OC)c2)ccc(OC)c1O	2.2 µM (inactive)	2.23 µM (inactive)	5.53 µM (inactive)	3.22 µM (inactive)	4.17 µM (inactive)	4.08 µM (inactive)	3.52 µM (inactive)	> 100 µM (inactive)	–
O=Cc1ccc2c(c1I)OCO2	> 100 µM (inactive)	–	–	> 100 µM (inactive)	> 100 µM (inactive)	–	> 100 µM (inactive)	> 100 µM (inactive)	–
O=c1[nH]c(=O)n(C2OC(CO)C(N(O)Cc3ccc(F)cc3)C2O)cc1Br (stereo not given)	> 100 µM (inactive)	> 100 µM (inactive)	> 100 µM (inactive)	> 100 µM (inactive)	> 100 µM (inactive)	–	> 100 µM (inactive)	–	–
Cc1c(NC(=O)C(C)(C)Br)c(=O)oc2c(C)c3occc(=O)c3cc12	77.3 µM (inactive)	44.1 µM (inactive)	42.9 µM (inactive)	–	–	27.3 µM (inactive)	41.4 µM (inactive)	–	48.1 µM (inactive)
CN1NC(c2ccccc2)=C(C#N)C(=O)CC1c1ccccc1Cl (stereo not given)	> 100 µM (inactive)	> 100 µM (inactive)	> 100 µM (inactive)	–	> 100 µM (inactive)	> 100 µM (inactive)	–	67.3 µM (inactive)	> 100 µM (inactive)
Cc1ccc2sc3cc(=O)cc(C)c-3nc2c1	43.3 µM (inactive)	19.6 µM (inactive)	28 µM (inactive)	16 µM (inactive)	> 100 µM (inactive)	–	> 100 µM (inactive)	> 100 µM (inactive)	54.1 µM (inactive)
c1cnc2c3[nH]cc4[nH]c5ccccc5c4c-3nc2c1	72.9 µM (inactive)	> 100 µM (inactive)	68.1 µM (inactive)	> 100 µM (inactive)	> 100 µM (inactive)	> 100 µM (inactive)	76.2 µM (inactive)	–	–
C=CC(=O)c1ccc2c(c1)OCCOCCOCCOCCOCCO2	15.7 µM (inactive)	19.3 µM (inactive)	16.9 µM (inactive)	17.8 µM (inactive)	17.7 µM (inactive)	15.3 µM (inactive)	30.2 µM (inactive)	16.1 µM (inactive)	–
Nc1nc(S)nc(C(=O)Nc2nccs2)c1-c1ccccc1	> 100 µM (inactive)	> 100 µM (inactive)	> 100 µM (inactive)	> 100 µM (inactive)	> 100 µM (inactive)	> 100 µM (inactive)	> 100 µM (inactive)	> 100 µM (inactive)	–
COC(=O)CC(=O)OC1C[C@@H]2CCC3C(C)(C)CCC[C@]3(C)C23CC[C@@]1(C)C3 (stereo not given in full)	–	20.2 µM (inactive)	–	19.1 µM (inactive)	19.6 µM (inactive)	19 µM (inactive)	20 µM (inactive)	–	–
c1ccc(P(=C2c3ccccc3-c3ccccc32)(c2ccccc2)c2ccccc2)cc1	5.04 µM (inactive)	2.79 µM (inactive)	3.85 µM (inactive)	4.94 µM (inactive)	–	–	2.56 µM (inactive)	4.47 µM (inactive)	5.64 µM (inactive)
CCCCC(=O)OC[n+]1ccc2c(C)c3[nH]c4ccc(OC)cc4c3c(C)c2c1	0.103 µM (active)	0.705 µM (active)	0.619 µM (active)	0.684 µM (active)	1.18 µM (inactive)	–	0.377 µM (active)	–	0.345 µM (active)
COc1ccc(-c2cc(C(=O)Nc3cc(C(F)(F)F)cc(C(F)(F)F)c3)c3ccccc3n2)cc1	8.36 µM (inactive)	6.56 µM (inactive)	8.83 µM (inactive)	17.2 µM (inactive)	19.5 µM (inactive)	7.31 µM (inactive)	7.08 µM (inactive)	17.7 µM (inactive)	–
Nc1c(-c2cn(Cc3ccccc3)c3ccccc23)[n+]([O-])c2ccccc2[n+]1[O-]	23.8 µM (inactive)	16.7 µM (inactive)	23.9 µM (inactive)	38.9 µM (inactive)	53.8 µM (inactive)	12.6 µM (inactive)	34.6 µM (inactive)	–	–
Fc1cccc(C2SCc3nc4ccccc4n32)c1 (stereo not given)	26.6 µM (inactive)	26.3 µM (inactive)	25.2 µM (inactive)	51.4 µM (inactive)	30.6 µM (inactive)	–	–	–	32.7 µM (inactive)
O=[N+]([O-])c1ccc(-c2noc(-c3ccc(Cl)cc3)c2C2=NCCN2)cc1	–	–	> 100 µM (inactive)	> 100 µM (inactive)	> 100 µM (inactive)	> 100 µM (inactive)	> 100 µM (inactive)	94.2 µM (inactive)	–

— ChEMBL document CHEMBL1201862, “PubChem BioAssay data set” (2004)
